One experiment addresses IKKε (Homo sapiens (Human), UniProt Q14164). Description: IKKε TR-FRET enzymatic assay. Particulars: read-out: IKKe IC50. The class given is biochemical. In general terms: TR-FRET usually uses a lanthanide donor and a delayed reading to cut background.
The next experiment concerns the target hJAK2 (Homo sapiens (Human), UniProt O60674). Kind of experiment: hJAK2 LANCE TR-FRET enzymatic assay. The class given is biochemical. Particulars: read-out: JAK2 IC50.
A further experiment concerns the target TBK1 (Homo sapiens (Human), UniProt Q9UHD2). Description: TBK1 TR-FRET enzymatic assay.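 Further: phosphorylation of a biotinylated Ser/Thr peptide by purified full-length recombinant TBK1, read by TR-FRET after 240 min at 25 °C, IC50 is the geometric mean of at least four runs.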

IC50 data for eight compounds are collected here from US10040781B2, “Tank-binding kinase inhibitor compounds” (Gilead Sciences, Inc., priority 2014, dated 2018).

The structures appear in SMILES notation. Bounds are passed on as bounds.

One may read the IC50 as the concentration needed to halve the response being measured.

Sequence of IKKε (Q14164 whole entry): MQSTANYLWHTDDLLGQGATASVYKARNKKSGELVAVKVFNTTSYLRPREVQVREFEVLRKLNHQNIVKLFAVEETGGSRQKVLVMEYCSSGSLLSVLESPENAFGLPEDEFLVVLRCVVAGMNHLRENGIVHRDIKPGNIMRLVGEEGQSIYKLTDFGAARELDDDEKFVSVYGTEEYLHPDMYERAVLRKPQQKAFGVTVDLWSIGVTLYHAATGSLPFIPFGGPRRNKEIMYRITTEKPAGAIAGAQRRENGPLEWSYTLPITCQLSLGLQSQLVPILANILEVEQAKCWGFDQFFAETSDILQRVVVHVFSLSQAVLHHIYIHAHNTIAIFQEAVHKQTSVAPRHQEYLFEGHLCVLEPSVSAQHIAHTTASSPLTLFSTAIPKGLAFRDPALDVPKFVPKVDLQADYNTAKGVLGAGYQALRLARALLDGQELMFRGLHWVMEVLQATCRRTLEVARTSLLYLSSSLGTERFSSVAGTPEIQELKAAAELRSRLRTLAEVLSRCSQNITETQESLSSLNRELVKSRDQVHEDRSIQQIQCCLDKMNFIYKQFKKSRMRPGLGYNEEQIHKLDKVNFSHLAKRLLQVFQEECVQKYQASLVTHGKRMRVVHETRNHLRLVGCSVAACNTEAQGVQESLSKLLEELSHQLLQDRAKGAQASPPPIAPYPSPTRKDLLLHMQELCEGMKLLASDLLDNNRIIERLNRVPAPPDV
Sequence of hJAK2 (O60674 whole entry): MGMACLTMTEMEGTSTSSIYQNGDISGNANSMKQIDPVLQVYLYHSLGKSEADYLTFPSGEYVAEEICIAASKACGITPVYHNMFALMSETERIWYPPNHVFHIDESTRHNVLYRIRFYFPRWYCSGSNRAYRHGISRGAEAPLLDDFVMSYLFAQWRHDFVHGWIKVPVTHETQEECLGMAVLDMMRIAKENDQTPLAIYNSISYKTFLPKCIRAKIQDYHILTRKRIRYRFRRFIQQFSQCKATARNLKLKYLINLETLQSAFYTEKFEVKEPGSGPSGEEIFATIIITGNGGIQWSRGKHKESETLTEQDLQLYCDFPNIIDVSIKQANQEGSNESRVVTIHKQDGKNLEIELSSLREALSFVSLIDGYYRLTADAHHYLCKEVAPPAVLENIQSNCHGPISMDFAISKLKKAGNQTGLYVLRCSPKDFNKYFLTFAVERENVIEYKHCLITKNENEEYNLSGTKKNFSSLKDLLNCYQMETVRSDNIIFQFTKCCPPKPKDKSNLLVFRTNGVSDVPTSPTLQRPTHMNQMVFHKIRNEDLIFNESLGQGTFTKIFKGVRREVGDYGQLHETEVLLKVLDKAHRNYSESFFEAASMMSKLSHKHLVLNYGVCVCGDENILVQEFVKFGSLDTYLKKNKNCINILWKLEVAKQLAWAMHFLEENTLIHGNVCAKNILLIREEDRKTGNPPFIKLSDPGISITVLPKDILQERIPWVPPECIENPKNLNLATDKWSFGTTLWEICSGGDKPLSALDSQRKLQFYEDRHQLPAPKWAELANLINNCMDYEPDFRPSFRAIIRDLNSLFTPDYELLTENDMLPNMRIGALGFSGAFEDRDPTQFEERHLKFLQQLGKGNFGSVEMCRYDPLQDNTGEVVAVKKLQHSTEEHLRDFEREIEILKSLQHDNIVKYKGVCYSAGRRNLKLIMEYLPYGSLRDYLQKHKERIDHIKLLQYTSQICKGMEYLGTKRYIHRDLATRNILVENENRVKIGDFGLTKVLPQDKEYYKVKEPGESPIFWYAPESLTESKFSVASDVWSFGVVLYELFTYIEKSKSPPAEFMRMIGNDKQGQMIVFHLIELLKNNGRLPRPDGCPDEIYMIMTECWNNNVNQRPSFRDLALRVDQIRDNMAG
Sequence of TBK1 (Q9UHD2 whole entry): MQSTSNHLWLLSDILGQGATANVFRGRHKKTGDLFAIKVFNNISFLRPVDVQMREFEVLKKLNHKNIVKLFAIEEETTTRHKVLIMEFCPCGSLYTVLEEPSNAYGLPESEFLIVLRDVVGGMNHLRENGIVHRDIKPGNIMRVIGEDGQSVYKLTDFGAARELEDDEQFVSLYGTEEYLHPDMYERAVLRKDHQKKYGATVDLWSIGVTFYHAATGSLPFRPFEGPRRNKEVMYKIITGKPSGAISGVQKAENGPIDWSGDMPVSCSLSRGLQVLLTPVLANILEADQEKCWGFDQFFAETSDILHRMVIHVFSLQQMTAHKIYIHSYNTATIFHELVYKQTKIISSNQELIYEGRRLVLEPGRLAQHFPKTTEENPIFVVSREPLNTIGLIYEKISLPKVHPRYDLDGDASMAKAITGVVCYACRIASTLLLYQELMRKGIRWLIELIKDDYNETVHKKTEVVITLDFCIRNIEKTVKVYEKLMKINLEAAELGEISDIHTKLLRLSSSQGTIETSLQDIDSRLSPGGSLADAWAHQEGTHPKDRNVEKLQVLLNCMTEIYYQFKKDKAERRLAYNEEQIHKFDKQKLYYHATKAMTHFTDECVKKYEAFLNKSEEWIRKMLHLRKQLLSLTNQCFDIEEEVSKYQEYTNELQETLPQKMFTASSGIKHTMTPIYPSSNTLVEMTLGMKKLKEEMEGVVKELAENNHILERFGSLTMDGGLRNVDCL

For the compound `N#Cc1cc(-c2ncnc(Nc3ccc(N4CCN(C5COC5)CC4)cc3)n2)ccc1O[C@H]1CCOC[C@H]1F` [Example 297, 2-(((3R,4S)-3-fluorotetrahydro-2H-pyran-4-yl)oxy)-5-(4-((4-(4-(oxetan-3-yl)piperazin-1-yl)phenyl)amino)-1,3,5-triazin-2-yl)benzonitrile], the results for the IC50 on IKKε, on hJAK2 and on TBK1 were 4 nM, 397 nM and 2 nM, respectively.

In the case of `N#Cc1cc(-c2ncnc(Nc3ccc(N4CCN(C=O)CC4)c(F)c3)n2)ccc1O[C@H]1CCOC[C@H]1F` [Example 299, 5-(4-((3-fluoro-4-(4-formylpiperazin-1-yl)phenyl)amino)-1,3,5-triazin-2-yl)-2-(((3R,4S)-3-fluorotetrahydro-2H-pyran-4-yl)oxy)benzonitrile], the IC50 at IKKε turned out to be 8 nM; at hJAK2, 401 nM; on TBK1, 4 nM.

Take `CN1CCC(c2ccc(Nc3ncnc(-c4ccc(O[C@H]5CCOC[C@H]5F)c(C#N)c4)n3)cc2)CC1` [Example 300, 2-(((3R,4S)-3-fluorotetrahydro-2H-pyran-4-yl)oxy)-5-(4-((4-(1-methylpiperidin-4-yl)phenyl)amino)-1,3,5-triazin-2-yl)benzonitrile]: the IC50 was determined as 3 nM on IKKε, 453 nM on hJAK2 and 4 nM at TBK1.

For the compound `N#Cc1cc(-c2ncnc(Nc3ccc(N4CCN(C5CCOCC5)CC4)c(F)c3)n2)ccc1O[C@H]1CCN(C(=O)CO)C[C@H]1F` [Example 307, 2-(((3R,4S)-3-fluoro-1-(2-hydroxyacetyl)piperidin-4-yl)oxy)-5-(4-((3-fluoro-4-(4-(tetrahydro-2H-pyran-4-yl)piperazin-1-yl)phenyl)amino)-1,3,5-triazin-2-yl)benzonitrile], the results for the IC50 on IKKε, at hJAK2 and against TBK1 were 1 nM, 268 nM and 3 nM, respectively.

Take `C[C@H](O)C(=O)N1CC[C@H](Oc2ccc(-c3ncnc(Nc4ccc(N5CCN(CC6COC6)CC5)cc4)n3)cc2C#N)[C@H](F)C1` [Example 308, 2-(((3R,4S)-3-fluoro-1-((S)-2-hydroxypropanoyl)piperidin-4-yl)oxy)-5-(4-((4-(4-(oxetan-3-ylmethyl)piperazin-1-yl)phenyl)amino)-1,3,5-triazin-2-yl)benzonitrile]: the IC50 is 1 nM at IKKε, 475 nM on hJAK2 and 2 nM at TBK1.

With `C[C@H](O)C(=O)N1CC[C@H](Oc2ccc(-c3ncnc(Nc4ccc(N5CCN(C6CCOCC6)CC5)cc4)n3)cc2C#N)[C@H](F)C1` [Example 309, 2-(((3R,4S)-3-fluoro-1-((S)-2-hydroxypropanoyl)piperidin-4-yl)oxy)-5-(4-((4-(4-(tetrahydro-2H-pyran-4-yl)piperazin-1-yl)phenyl)amino)-1,3,5-triazin-2-yl)benzonitrile], the IC50 on IKKε worked out at 1 nM; at hJAK2, 423 nM; on TBK1, 2 nM.

Take `C[C@H](O)C(=O)N1CC[C@H](Oc2ccc(-c3ncnc(Nc4ccc(C5CCN(C6COC6)CC5)c(F)c4)n3)cc2C#N)[C@H](F)C1` [Example 310, 2-(((3R,4S)-3-fluoro-1-((S)-2-hydroxypropanoyl)piperidin-4-yl)oxy)-5-(4-((3-fluoro-4-(1-(oxetan-3-yl)piperidin-4-yl)phenyl)amino)-1,3,5-triazin-2-yl)benzonitrile]: the values for the IC50 on IKKε, at hJAK2 and on TBK1 were 2 nM, no less than 1000 nM and 4 nM, respectively.

For the compound `C[C@H](O)C(=O)N1CC[C@H](Oc2ccc(-c3ncnc(Nc4ccc(N5CCN(C6(C)COC6)CC5)cc4)n3)cc2C#N)[C@H](F)C1` [Example 312, 2-(((3R,4S)-3-fluoro-1-((S)-2-hydroxypropanoyl)piperidin-4-yl)oxy)-5-(4-((4-(4-(3-methyloxetan-3-yl)piperazin-1-yl)phenyl)amino)-1,3,5-triazin-2-yl)benzonitrile], the IC50 on IKKε worked out at 3 nM; on hJAK2, 636 nM; on TBK1, 3 nM.
